Data taken from patent publication EP4534542A1, “THIOSUGAR BASED ISOTHIOCYANATES AND USES THEREOF” (Universidad de Sevilla, priority 2023, dated 2025).
Where two headings read alike, the source gives them in different places.

What was measured:
[1] = system: MeWo (human melanoma cells); test: Cell viability assay (resazurin), cytotoxic activity against solid tumours; format: cell-based; conditions: for IC50: read-out: IC50 MeWo (Melanoma; BRAF WT); for S.I. MeWo (Selectivity Index): IC50 HaCaT divided by IC50 MeWo, mean of independent experiments
Description: (§1) Cells were grown in Dulbecco's Modified Eagle's Medium (DMEM) supplemented with 100 U/mL penicillin, 100 µg/mL streptomycin and 10% fetal bovine serum. HL60 cell line (acute myeloid leukaemia, AML) was obtained from ATCC. It was cultured in IMDM medium supplemented with 100 U/mL penicillin, 100 µg/mL streptomycin and 10% fetal bovine serum. U937 (AML) and Jurkat cells (ALL) were obtained from DMSZ, Braunschweig, Germany, and ATCC, respectively. They were cultivated in RPMI medium, supplemented with 100 U/mL penicillin, 100 µg/mL streptomycin and 10% fetal bovine serum. […] All cell lines were cultured at 37 ° C with 5% CO2 in a humidified incubator. Cell culture reagents were purchased from Biowest. Exponentially growing cells (3000-6000 cells per well) were seeded in 96-well plates. After 24 hours, cells were treated with the drugs for 72 hours. The cell viability was then estimated with the resazurin assay, a colorimetric technique based on the capability of viable cells to reduce the blue reagent resazurin to the pink-soluble product resorufin. The amount of resorufin produced is proportional to the number of viable cells. Briefly, cells were washed once with phosphate buffered saline (PBS) and 150 µL resazurin (20 µg/mL in medium) was added to each well. […] Cell viability was calculated as a percentage compared to non-treated cells. The results were expressed as the means ± standard error of the mean (SEM). All data are from at least three independent experiments. The selectivity index (S.I.) values were calculated over each cancer cell line as the mean of the IC50 value in the non-malignant cell line (HaCaT) by the IC50 in the respective cancer cell line obtained in each independent experiment.

[2] = system: T24 (human bladder cancer cells); test: as above; format: cell-based; conditions: for IC50: read-out: IC50 T24 (Bladder cancer); for S.I. T24 (Selectivity Index): IC50 HaCaT divided by IC50 T24, mean of independent experiments
Description: as §1

[3] = system: A549 (human lung adenocarcinoma cells); test: as above; format: cell-based; conditions: for IC50: read-out: IC50 A549 (Lung adenocarcino ma); for S.I. A549 (Selectivity Index): IC50 HaCaT divided by IC50 A549, mean of independent experiments
Description: as §1

HaCaT cells = test: Cell viability assay (resazurin), cytotoxicity in non-malignant cells; format: cell-based, human; conditions: read-out: IC50 HaCaT (Non-malignant keratinocyte)
Description: Cells were grown in Dulbecco's Modified Eagle's Medium (DMEM) supplemented with 100 U/mL penicillin, 100 µg/mL streptomycin and 10% fetal bovine serum. HL60 cell line (acute myeloid leukaemia, AML) was obtained from ATCC. It was cultured in IMDM medium supplemented with 100 U/mL penicillin, 100 µg/mL streptomycin and 10% fetal bovine serum. U937 (AML) and Jurkat cells (ALL) were obtained from DMSZ, Braunschweig, Germany, and ATCC, respectively. They were cultivated in RPMI medium, supplemented with 100 U/mL penicillin, 100 µg/mL streptomycin and 10% fetal bovine serum. […] All cell lines were cultured at 37 ° C with 5% CO2 in a humidified incubator. Cell culture reagents were purchased from Biowest. Exponentially growing cells (3000-6000 cells per well) were seeded in 96-well plates. After 24 hours, cells were treated with the drugs for 72 hours. The cell viability was then estimated with the resazurin assay, a colorimetric technique based on the capability of viable cells to reduce the blue reagent resazurin to the pink-soluble product resorufin. The amount of resorufin produced is proportional to the number of viable cells. Briefly, cells were washed once with phosphate buffered saline (PBS) and 150 µL resazurin (20 µg/mL in medium) was added to each well. The plates were incubated for 3 hours at 37 °C, 5% CO2, and finally optical densities were measured at 540 and 620 nm with a multiwell plate spectrophotometer reader (Multiskan EX Labsystems). Cell viability was calculated as a percentage compared to non-treated cells. The results were expressed as the means ± standard error of the mean (SEM). All data are from at least three independent experiments.

[4] = system: U937 (Acute myeloid leukaemia); test: Antileukemic activity, cell viability (CCK-8 Cell Counting Kit); format: cell-based; conditions: Homo sapiens, U-937; 18 h incubation, compounds 0 - 100 µM; read-out: IC50 Cancer cells U937 (Acute myeloid leukaemia)
Description: (§2) HaCaT cells (human keratinocytes, reference control), A549 (human lung adenocarcinoma cells), MeWo (human melanoma cells) and T24 (human bladder cancer cells) were purchased from Cell Lines Service (CLS). Cells were grown in Dulbecco's Modified Eagle's Medium (DMEM) supplemented with 100 U/mL penicillin, 100 µg/mL streptomycin and 10% fetal bovine serum. HL60 cell line (acute myeloid leukaemia, AML) was obtained from ATCC. It was cultured in IMDM medium supplemented with 100 U/mL penicillin, 100 µg/mL streptomycin and 10% fetal bovine serum. U937 (AML) and Jurkat cells (ALL) were obtained from DMSZ, Braunschweig, Germany, and ATCC, respectively. They were cultivated in RPMI medium, supplemented with 100 U/mL penicillin, 100 µg/mL streptomycin and 10% fetal bovine serum. OPM-2 cell line (MM), was obtained from DMSZ, Braunschweig, Germany and cultured in RPMI medium supplemented with 100 U/mL penicillin, 100 µg/mL streptomycin, 10% fetal bovine serum and 1X GlutaMAXTM. All cell lines were cultured at 37 ° C with 5% CO2 in a humidified incubator. Cell culture reagents were purchased from Biowest.
(§3) For the leukemic cell lines, the CCK-8 Cell Counting Kit (Dojindo Molecular Technologies) was used according to manufacturers instructions. Briefly, 50.000 cells were seeded in each well of a 96 well plate, and they were treated with increased amounts (0 - 100 µM) of each of the compounds, and incubated for 18 h at 37 °C, 5% CO2. After this period, 7 µl of the CCK-8 reagent were added to each well, and cells were further incubated for 2 h at 37 °C, 5% CO2. OD at 450 nm was obtained using a MultiskanTM GO microplate reader (Thermo Fisher Scientific, Waltham, MA, EE.UU). Cell viability in each condition was normalized to the measurement obtained in the non treated samples (100%), and were represented as average ± standard error of the mean (SEM).

[5] = system: HL60 (Acute myeloid leukaemia); test: as above; format: cell-based; conditions: Homo sapiens, HL-60; 18 h incubation, compounds 0 - 100 µM; read-out: IC50 Cancer cells HL60 (Acute myeloid leukaemia)
Description: as §2, §3

[6] = system: Jurkat (Acute lymphoblastic leukaemia); test: as above; format: cell-based; conditions: Homo sapiens, 18 h incubation, compounds 0 - 100 µM, read-out: IC50 Cancer cells Jurkat (Acute lymphoblastic leukaemia)
Description: as §2, §3

OPM-2 (Multiple myeloma) = test: as above; format: cell-based; conditions: Homo sapiens, 18 h incubation, compounds 0 - 100 µM, read-out: IC50 Cancer cells OPM-2 (Multiple myeloma)
Description: as §2, §3

[7] = Homo sapiens, MeWo, 72 h treatment, resazurin assay, mean ± SEM
[8] = Homo sapiens, 72 h treatment, resazurin assay, mean ± SEM
[9] = Homo sapiens, A549, 72 h treatment, resazurin assay, mean ± SEM
[10] = Homo sapiens, HaCaT, 72 h treatment, resazurin assay, mean ± SEM
[11] = 72 h treatment, resazurin assay, mean ± SEM

IC50 [4] [µM]	IC50 [5] [µM]	IC50 [6] [µM]	SMILES	IC50 [1, 7] [µM]	S.I. MeWo (Selectivity Index) [1]	IC50 [2, 8] [µM]	S.I. T24 (Selectivity Index) [2]	IC50 [3, 9] [µM]	S.I. A549 (Selectivity Index) [3]	IC50 (HaCaT cells; [10]) [µM]	IC50 (OPM-2 (Multiple myeloma)) [µM]	IC50 ([1]; Homo sapiens, MeWo, 72 h) [µM]	IC50 ([2]; Homo sapiens, 72 h) [µM]	IC50 ([3]; Homo sapiens, A549, 72 h) [µM]	IC50 (HaCaT cells; Homo sapiens, HaCaT, 72 h) [µM]	IC50 [1, 11] [µM]	IC50 [2, 11] [µM]	IC50 [3, 11] [µM]	IC50 (HaCaT cells; [11]) [µM]
–	–	–	CC(=O)OC[C@H]1O[C@@H]([S@+]([O-])c2ccccc2)[C@H](OC(C)=O)[C@@H](N=C=S)[C@@H]1OC(C)=O [(RS)-18β, Phenyl 2,4,6-tri-O-acetyl-3-isotiocianato-1,3-dideoxy-1[(R)-sulfinyl]-β-D-glucopyranose]	21.9 ± 2.9	1.8±0.2	17.2 ± 1.2	2.2±0.4	21.9 ± 2.5	1.7±0.2	39.4 ± 8.7	–	–	–	–	–	–	–	–	–
8.3	4.2	14.4	CC(=O)OC[C@H]1O[C@H](Sc2ccccc2)[C@H](OC(C)=O)[C@@H](N=C=S)[C@@H]1OC(C)=O [Compound 15α, Phenyl 2,4,6-tri-O-acetyl-3-isothiocyanato-1,3-dideoxy-1-thio-α-D-glucopyranoside]	18.8 ± 2.4	1.0±0.1	15.3 ± 2.1	1.2±0.1	14.1 ± 2.9	1.4±0.3	17.7 ± 1	10.2	–	–	–	–	–	–	–	–
~43.3	~6.6	20	CC(=O)OC[C@H]1O[C@@H]([S@@+]([O-])c2ccccc2)[C@H](OC(C)=O)[C@@H](N=C=S)[C@@H]1OC(C)=O [(SS)-18β, Phenyl 2,4,6-tri-O-acetyl-3-isotiocianato-1,3-dideoxy-1[(S)-sulfinyl]-β-D-glucopyranose]	16 ± 2.6	1.5±0.1	12.9 ± 3	2.0±0.3	16.8 ± 2.9	1.5±0.1	24.2 ± 3.9	16.6	–	–	–	–	–	–	–	–
–	–	–	CC(=O)OC[C@H]1O[C@H](S(=O)(=O)c2ccccc2)[C@H](OC(C)=O)[C@@H](N=C=S)[C@@H]1OC(C)=O [Compound 21α, Phenyl 2,4,6-tri-O-acetyl-3-isothiocyanato-1,3-dideoxy-1-sulfonyl-α-D-glucopyranose]	–	2.0±0.3	–	2.4±0.4	–	1.9±0.2	–	–	22.9 ± 5.9	18.5 ± 0.6	22.9 ± 3.7	45 ± 8.9	–	–	–	–
–	–	–	CC(=O)OC[C@H]1O[C@@H](Sc2ccccc2)[C@H](OC(C)=O)[C@@H](N=C=S)[C@@H]1OC(C)=O [Compound 15β, Phenyl 2,4,6-tri-O-acetyl-3-isothiocyanato-1,3-dideoxy-1-thio-β-D-glucopyranoside]	30.2 ± 9.5	1.1±0.0	27.1 ± 8.7	1.2±0.1	32.2 ± 10.2	1.3±0.1	32.2 ± 10.2	–	–	–	–	–	–	–	–	–
–	–	–	N.N.[Cl][Pt][Cl] [Cisplatin, reference compound]	–	–	–	–	–	–	–	–	–	–	–	–	2.2 ± 1.1	1.6 ± 0.5	13.5 ± 2.7	2.1 ± 0.7
41.2	50.3	38.1	CC[S@@+]([O-])[C@H]1O[C@H](COC(C)=O)[C@@H](OC(C)=O)[C@H](N=C=S)[C@H]1OC(C)=O [(RS)-17α, Ethyl 2,4,6-tri-O-acetyl-3-isothiocyanato-1,3-dideoxy-1[(R)-sulfinyl]-α-D-glucopyranse]	113 ± 39.2	> 1.1	65.6 ± 13.3	> 1.6	108 ± 25.7	> 1.1	> 100	–	–	–	–	–	–	–	–	–
–	–	–	C[S+]([O-])CCCCN=C=S (stereo not shown) [SFN, sulforaphane, reference compound]	12.9 ± 4.2	1.7±0.4	6.3 ± 0.2	2.6±0.3	10.6 ± 2.1	1.7 ± 0.2	16.6 ± 2.4	–	–	–	–	–	–	–	–	–

SMILES	IC50 [4] [µM]	IC50 [5] [µM]	IC50 [6] [µM]	IC50 [1, 7] [µM]	S.I. MeWo (Selectivity Index) [1]	IC50 [2, 8] [µM]	S.I. T24 (Selectivity Index) [2]	IC50 [3, 9] [µM]	S.I. A549 (Selectivity Index) [3]	IC50 (HaCaT cells; [10]) [µM]	IC50 (OPM-2 (Multiple myeloma)) [µM]	IC50 ([1]; Homo sapiens, MeWo, 72 h) [µM]	IC50 ([2]; Homo sapiens, 72 h) [µM]	IC50 ([3]; Homo sapiens, A549, 72 h) [µM]	IC50 (HaCaT cells; Homo sapiens, HaCaT, 72 h) [µM]	IC50 [1, 11] [µM]	IC50 [2, 11] [µM]	IC50 [3, 11] [µM]	IC50 (HaCaT cells; [11]) [µM]
CS(=O)(=O)CCCN=C=S [Compound 6, 1-isothiocyanato-3-(methylsulfonyl)propane, reference compound]	8.4	7	10.3	–	1.3±0.2	–	3.3±0.1	–	1.9±0.4	–	13	29.5 ± 8.7	10.7 ± 2.2	25.2 ± 9.3	35.9 ± 7.8	–	–	–	–
CSCCCN=C=S [Compound 4, (3-isothiocyanatopropyl)(methyl)sulfane, reference compound]	–	9	8.9	–	–	–	–	–	–	–	12	31.6 ± 5.7	14.4 ± 1.1	31.1 ± 7.6	43.9 ± 3.2	–	–	–	–
